Drawing on PubChem BioAssay (NCI), this text covers GI50 and TGI for 12 compounds.

Molecules are shown by their SMILES. “And” between values parts separate entries of the source, which are not always exact repeats. Equal values may be shown once.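 How tested: cells in 96-well plates exposed to compound for 48 hours at five concentrations. At the GI50, growth is halved. TGI is the concentration that stops growth completely.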

Some test systems named below: NCI-H23 lung; SN12C renal; A549 NSCLC; OVCAR-4 ovarian; LOX IMVI melanoma; UACC-257 melanoma; OVCAR-3 ovarian; M14 melanoma; MALME-3M melanoma; NCI-H460 lung.
Test in all cases: NCI tumour cell line growth inhibition, 48 h

Regarding `COC(=O)c1c(C)nc(C)c2c1C(=O)C(Br)=C(NCc1ccccc1)C2=O`, the GI50 is 1.89 µM in the assay with NCI-H23 lung; 1.49 µM in the assay with SN12C renal; 2.56 µM in the assay with A549 NSCLC; 1.55 µM with OVCAR-4 ovarian; 2.45 µM in the assay on LOX IMVI melanoma; 1.62 µM with UACC-257 melanoma. For the same compound, the GI50 in the assay with OVCAR-3 ovarian was 2.27 µM; in the assay with M14 melanoma, 2.06 µM; in the assay on MALME-3M melanoma, 1.47 µM; in the assay with NCI-H460 lung, 2.94 µM. Also, the TGI with NCI-H23 lung came out at 5.19 µM; in the assay with SN12C renal, 3.45 µM; with A549 NSCLC, 6.64 µM; in the assay with OVCAR-4 ovarian, 3 µM; in the assay on LOX IMVI melanoma, 10.8 µM; in the assay on UACC-257 melanoma, 3.19 µM. Further, the TGI in the assay on OVCAR-3 ovarian was found to be 6.16 µM; in the assay on M14 melanoma it was 4.81 µM; in the assay with MALME-3M melanoma, 2.85 µM; in the assay with NCI-H460 lung it was 11.5 µM.
Turning to `CC1(C)N=C(N)N=C(N)N1c1ccc(CCCC(=O)Nc2ccc(S(=O)(=O)F)cc2)cc1`, the GI50 with NCI-H23 lung was 8.59 µM; in the assay with SN12C renal, 6.15 µM; in the assay on A549 NSCLC it was 9.82 µM; in the assay on OVCAR-4 ovarian, above 62.3 µM; with LOX IMVI melanoma, 6.03 µM; in the assay on UACC-257 melanoma, 24.8 µM. The GI50 in the assay on OVCAR-3 ovarian was 33.6 µM; with M14 melanoma, 5.44 µM; in the assay on MALME-3M melanoma, 24.2 µM; in the assay on NCI-H460 lung, 0.816 µM. In addition, the TGI in the assay with NCI-H23 lung, in the assay on SN12C renal, with A549 NSCLC, in the assay on OVCAR-4 ovarian, with LOX IMVI melanoma and with UACC-257 melanoma was above 100 µM in each case. For the same compound, the TGI in the assay with OVCAR-3 ovarian, in the assay with M14 melanoma, in the assay with MALME-3M melanoma and in the assay with NCI-H460 lung was above 100 µM throughout.
With `COc1cc2ncn(-c3cc(OCc4ccccc4C(F)(F)F)c(C(N)=O)s3)c2cc1OC`, the GI50 in the assay on NCI-H23 lung is 0.16 µM; in the assay with SN12C renal it was 2.67 µM; in the assay on A549 NSCLC it was 0.204 µM; in the assay with OVCAR-4 ovarian, above 23.5 µM; in the assay on LOX IMVI melanoma it was 0.139 µM; with UACC-257 melanoma, above 5.96 µM. The GI50 in the assay on OVCAR-3 ovarian is 0.0838 µM; with M14 melanoma, 0.141 µM; in the assay with MALME-3M melanoma, 14.5 µM; with NCI-H460 lung, 0.101 µM. The TGI with NCI-H23 lung was above 22.2 µM; in the assay on SN12C renal it was above 25 µM; with A549 NSCLC, above 25 µM; in the assay with OVCAR-4 ovarian, above 25 µM; with LOX IMVI melanoma it was above 25 µM; with UACC-257 melanoma, above 25 µM. The TGI in the assay with OVCAR-3 ovarian is 0.794 µM; in the assay with M14 melanoma it was above 25 µM; in the assay with MALME-3M melanoma, above 25 µM; in the assay on NCI-H460 lung, above 25 µM.
Turning to `COc1cc2c(c(OC)c1OC)-c1cc(I)c(O)cc1[C@@H](NC(C)=O)CC2`, the GI50 with NCI-H23 lung was 0.046 µM; with SN12C renal, 0.106 µM; with A549 NSCLC, 0.0695 µM; in the assay on OVCAR-4 ovarian it was 0.105 µM; with LOX IMVI melanoma, 0.075 µM; in the assay on UACC-257 melanoma, 49.1 µM. The GI50 is 0.0258 µM in the assay with OVCAR-3 ovarian, 0.0311 µM with M14 melanoma, above 100 µM with MALME-3M melanoma and 0.0356 µM in the assay on NCI-H460 lung. The TGI in the assay on NCI-H23 lung is above 100 µM; in the assay on SN12C renal, above 100 µM; in the assay with A549 NSCLC, above 40.1 µM; in the assay on OVCAR-4 ovarian, above 100 µM; in the assay with LOX IMVI melanoma it was above 100 µM; with UACC-257 melanoma it was above 100 µM. Further, the TGI in the assay on OVCAR-3 ovarian was 0.0623 µM; in the assay on M14 melanoma, 0.0969 µM; with MALME-3M melanoma, above 100 µM; in the assay with NCI-H460 lung, 4.99 µM.
Consider `O=c1ccc(N=Nc2ccccc2)ccc1O`, for which the TGI in the assay on NCI-H23 lung is 31.5 µM; in the assay on SN12C renal, 34.6 µM; with A549 NSCLC, 27.8 µM; in the assay on OVCAR-4 ovarian, 69.1 µM; in the assay with LOX IMVI melanoma, 17.4 µM; with UACC-257 melanoma, 51.7 µM. For the same compound, the TGI in the assay with OVCAR-3 ovarian was found to be 22 µM; with M14 melanoma, 28.5 µM; with MALME-3M melanoma it was 27.9 µM; in the assay with NCI-H460 lung it was 97.8 µM.
On to `O=[N+]([O-])c1ccccc1N=Nc1c(O)[nH]c2c(Cl)cccc12`, for which the TGI is above 71.3 µM in the assay on NCI-H23 lung; above 57.7 µM with SN12C renal; above 58.6 µM with A549 NSCLC; 24.8 µM in the assay on OVCAR-4 ovarian; 44.1 µM in the assay with LOX IMVI melanoma; above 42.5 µM with UACC-257 melanoma. Also, the TGI in the assay with OVCAR-3 ovarian is above 85.3 µM; in the assay with M14 melanoma, above 100 µM; with MALME-3M melanoma, above 35.2 µM; with NCI-H460 lung, 38.4 µM.
Take `CC(=O)CCC1(c2ccccc2)OC(=O)C(C#N)=C1c1ccccc1` (stereo not given): the TGI in the assay with NCI-H23 lung, in the assay on SN12C renal, with A549 NSCLC, in the assay with OVCAR-4 ovarian, in the assay with LOX IMVI melanoma and in the assay on UACC-257 melanoma was above 100 µM throughout. The TGI with OVCAR-3 ovarian, in the assay with M14 melanoma, in the assay with MALME-3M melanoma and in the assay on NCI-H460 lung was above 100 µM in each case.
For the compound `COC(=O)C(=O)C(C(=O)C(=O)Nc1ccc([N+](=O)[O-])cc1)c1nc2ccccc2[nH]c1=O` (stereo not given), the TGI in the assay on NCI-H23 lung, in the assay on SN12C renal, in the assay with A549 NSCLC, with OVCAR-4 ovarian, in the assay with LOX IMVI melanoma and with UACC-257 melanoma was above 100 µM throughout. In addition, the TGI in the assay on OVCAR-3 ovarian, in the assay with M14 melanoma, in the assay on MALME-3M melanoma and in the assay on NCI-H460 lung was above 100 µM in each case.
For the compound `NNc1c(C(N)=O)c2c(N)ncnc2n1C1OC(CO)C(O)C1O` (stereo not given), the GI50 with NCI-H23 lung was 0.0268 µM and 0.0507 µM; in the assay with SN12C renal, 0.019 µM and 0.0443 µM; with A549 NSCLC, 0.0336 µM and 0.0924 µM; in the assay with OVCAR-4 ovarian, below 0.0105 µM; in the assay with LOX IMVI melanoma, 0.0349 µM; with UACC-257 melanoma, 0.0404 µM and 0.132 µM. In addition, the GI50 in the assay with OVCAR-3 ovarian was 0.0176 µM and 0.0219 µM; in the assay with M14 melanoma, < 0.0127 µM and 0.0188 µM; in the assay on MALME-3M melanoma, 0.0205 µM and 0.0363 µM; with NCI-H460 lung it was 0.0197 µM and 0.14 µM. For the same compound, the TGI was 0.266 µM and 0.319 µM in the assay with NCI-H23 lung; 0.174 µM and 0.58 µM with SN12C renal; 12.7 µM and 3.44 µM with A549 NSCLC; 0.776 µM and 0.16 µM in the assay on OVCAR-4 ovarian; 0.13 µM and 1.2 µM in the assay with LOX IMVI melanoma; 0.254 µM and 1.37 µM in the assay on UACC-257 melanoma. Further, the TGI in the assay with OVCAR-3 ovarian is 0.4 µM and 0.335 µM; in the assay with M14 melanoma, 0.0498 µM and 0.162 µM; with MALME-3M melanoma it was 0.084 µM and 0.171 µM; in the assay with NCI-H460 lung, 0.673 µM and 4.45 µM.
As to `CCCC1C[C@H]2CCCCN2[C@H]2CCCN12` (stereo not given in full), the TGI is above 100 µM in the assay on NCI-H23 lung; above 100 µM in the assay on SN12C renal; above 100 µM in the assay on A549 NSCLC; above 100 µM with OVCAR-4 ovarian; above 55 µM in the assay on LOX IMVI melanoma; above 100 µM with UACC-257 melanoma. Also, the TGI with OVCAR-3 ovarian, in the assay with M14 melanoma, with MALME-3M melanoma and with NCI-H460 lung was above 100 µM each time.
Regarding `CC(C)=C[C@@H]1C[C@H](C)[C@H]2CC[C@H](C)c3c(O)c(OC4OC(C)C(O)C(O)C4O)c(C)c1c32` (stereo not given in full), the GI50 in the assay with NCI-H23 lung is 2.21 µM; in the assay on SN12C renal, 11.3 µM; in the assay with A549 NSCLC, 11.9 µM; in the assay with OVCAR-4 ovarian, 12.1 µM; in the assay on LOX IMVI melanoma it was 11.8 µM; with UACC-257 melanoma, 14.2 µM. In addition, the GI50 in the assay with OVCAR-3 ovarian is 1.93 µM; in the assay with M14 melanoma, 11.5 µM; in the assay with MALME-3M melanoma, 12.9 µM; in the assay on NCI-H460 lung, 7.83 µM. The TGI with NCI-H23 lung came out at 20 µM; with SN12C renal it was 23.5 µM; in the assay on A549 NSCLC, 24.2 µM; in the assay on OVCAR-4 ovarian, 24.7 µM; in the assay on LOX IMVI melanoma, 24.4 µM; with UACC-257 melanoma it was 27.3 µM. In addition, the TGI with OVCAR-3 ovarian worked out at 8.43 µM; with M14 melanoma, 24.9 µM; with MALME-3M melanoma, 29.8 µM; in the assay with NCI-H460 lung, 21.2 µM.
`S=c1ssnc1-c1cc2ccccc2o1`: the GI50 with NCI-H23 lung is 24.4 µM; in the assay with SN12C renal, 13.8 µM; with A549 NSCLC, 16.3 µM; in the assay on OVCAR-4 ovarian it was 21.6 µM; with LOX IMVI melanoma, 4.12 µM; in the assay on UACC-257 melanoma, 6.09 µM. Besides, the GI50 in the assay with OVCAR-3 ovarian was 15.6 µM; in the assay with M14 melanoma, 16.5 µM; in the assay with MALME-3M melanoma, 20.7 µM; in the assay with NCI-H460 lung, 11 µM. Moreover, the TGI in the assay with NCI-H23 lung was 75.5 µM; in the assay with SN12C renal it was 32.1 µM; with A549 NSCLC it was 32.1 µM; with OVCAR-4 ovarian, above 100 µM; in the assay on LOX IMVI melanoma, 15.7 µM; with UACC-257 melanoma, 20.5 µM. Further, the TGI in the assay with OVCAR-3 ovarian turned out to be 49.2 µM; with M14 melanoma, 60.7 µM; in the assay on MALME-3M melanoma, 46.8 µM; in the assay on NCI-H460 lung, 29.5 µM.
